pIC50: −log10 of the molar value.

The target in this assay is Vascular endothelial growth factor receptor 2 (Homo sapiens, UniProt P35968).
Sequence of Vascular endothelial growth factor receptor 2 (P35968 whole entry): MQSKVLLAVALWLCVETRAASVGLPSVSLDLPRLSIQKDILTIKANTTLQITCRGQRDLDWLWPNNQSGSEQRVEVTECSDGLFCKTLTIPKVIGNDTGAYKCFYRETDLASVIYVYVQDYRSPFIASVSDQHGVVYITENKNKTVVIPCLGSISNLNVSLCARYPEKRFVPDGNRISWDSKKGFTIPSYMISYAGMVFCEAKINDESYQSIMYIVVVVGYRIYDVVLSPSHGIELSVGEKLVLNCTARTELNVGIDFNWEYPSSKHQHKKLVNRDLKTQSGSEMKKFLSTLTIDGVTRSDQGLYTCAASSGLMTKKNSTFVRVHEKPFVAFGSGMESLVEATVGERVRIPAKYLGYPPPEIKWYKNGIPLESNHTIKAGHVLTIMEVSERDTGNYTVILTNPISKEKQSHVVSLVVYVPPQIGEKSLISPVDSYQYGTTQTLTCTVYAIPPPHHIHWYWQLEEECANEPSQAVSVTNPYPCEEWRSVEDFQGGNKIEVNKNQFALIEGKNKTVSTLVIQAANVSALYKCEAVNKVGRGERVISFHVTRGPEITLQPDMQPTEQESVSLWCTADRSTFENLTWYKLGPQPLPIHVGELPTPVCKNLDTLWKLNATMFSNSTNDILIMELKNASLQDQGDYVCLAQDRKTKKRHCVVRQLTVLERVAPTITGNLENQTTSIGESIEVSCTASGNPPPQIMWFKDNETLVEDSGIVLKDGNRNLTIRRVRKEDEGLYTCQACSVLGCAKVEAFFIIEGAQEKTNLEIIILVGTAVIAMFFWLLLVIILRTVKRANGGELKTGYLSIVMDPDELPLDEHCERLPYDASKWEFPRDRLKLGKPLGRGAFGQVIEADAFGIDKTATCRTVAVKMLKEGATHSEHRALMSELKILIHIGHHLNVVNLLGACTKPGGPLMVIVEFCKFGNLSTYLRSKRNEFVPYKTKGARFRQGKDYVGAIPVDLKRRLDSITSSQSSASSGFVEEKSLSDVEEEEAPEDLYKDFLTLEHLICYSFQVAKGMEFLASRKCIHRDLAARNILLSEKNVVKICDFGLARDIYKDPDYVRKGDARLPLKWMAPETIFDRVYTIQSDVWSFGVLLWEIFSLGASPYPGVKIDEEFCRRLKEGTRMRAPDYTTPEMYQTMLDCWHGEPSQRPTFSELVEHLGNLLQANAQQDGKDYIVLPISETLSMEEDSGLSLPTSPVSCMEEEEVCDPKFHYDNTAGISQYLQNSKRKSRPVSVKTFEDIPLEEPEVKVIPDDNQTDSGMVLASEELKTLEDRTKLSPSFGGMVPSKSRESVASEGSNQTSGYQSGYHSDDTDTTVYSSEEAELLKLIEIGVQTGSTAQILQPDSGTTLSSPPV
As usually defined, the pIC50 is −log10 of the IC50, conventionally taken in molar units. Higher therefore signals a small IC50. `O=C1Nc2ccccc2/C1=C\c1sccc1Br` had a pIC50 of 4.81. The same measure for `Cn1cccc1/C=C1/C(=O)Nc2ccccc21`: 4.70; for `Cc1cccc2c1/C(=C\c1ccc[nH]1)C(=O)N2`: 4.51.

Source of the values: ChEMBL document CHEMBL1144621, “Pharmacophore modeling and in silico screening for new KDR kinase inhibitors” (Bioorg Med Chem Lett, 2007).
